The values below come from patent US7972785B2, “Biomarkers for liver fibrotic injury” (Industrial Technology Research Institute (ITRI), priority 2006, dated 2011).

In data set [1] the test system is rat liver proteins (vimentin, fibrinogen). Put plainly: iTRAQ proteomics / Western blot of liver protein of DMN-treated rats. Format: in vivo. Particulars: DMN-induced rats. As for the experimental part: The liver tissues of 6 control and 6 DMN-treated rats were used to perform duplicate iTRAQ labeling experiments. Liver tissue was frozen in liquid nitrogen and then pulverized to powder using a mortar and pestle pre-cooled with liquid nitrogen. Then, the liquid nitrogen was allowed to evaporate, and the powdered tissue was separated into tubes and stored at −80° C. Twenty volumes (w/v) of lysis buffer (containing 2% (w/v) SDS in 20 mM phosphate buffer at pH 7.6) was added to the powdered tissue and incubated at room temperature for 1 hour. […]
The total protein contents were determined using the Coomassie Plus Protein Assay Reagent (PIERCE, Rockford, Ill., U.S.A.). […]
Peptides with different isobaric tags were pooled and acidified by mixing with 10 mM phosphoric acid (in 25% (v/v) acetonitrile and 75% H2O) to a total volume of 4.0 mL for strong cation exchange (SCX) chromatography. […] The desalted peptide from each SCX fraction was dried by speed vacuuming centrifugation and then analyzed by nanoLC hybrid mass spectrometry. […] MS/MS mass spectra were analyzed in continuous flow mode with a […] I.D. fused silica tip. MS/MS spectra were analyzed against rat.fasta databases from NCBI by ProQUANT 2.0 (Applied Biosystems/MDS Sciex, Foster City, Calif., U.S.A.). […] Relative quantification of peptide was performed on the MS/MS scans, using ratio of the areas under the peaks. […]
(In general: A western blot detects proteins with antibodies after separation by electrophoresis.)

Another data set concerns rat liver. Put plainly: Histopathological examination of DMN-induced liver damage. Format: in vivo. The protocol:
A rat hepatic fibrosis model was set up through the use of DMN. DMN is a potent hepatoxin that specifically targets the liver and can cause liver fibrosis. The histopathological changes resulting from DMN treatment involve the rapid deposition of collagen, the major protein of fibrosis and important to the process of cirrhosis. […] The DMN-induced liver fibrosis model was performed as described in Jezequel A. M. et al. (14). Male Sprague-Dawley rats (Slc:SD; Japan SLC, Shizuoka, Japan), weighing from 300 to 350 grams, were used in the experiments. To induce hepatic fibrosis over a six-week time course experiment, the rats were given DMN (Sigma, Saint Louis, Mo.), dissolved in normal saline, three consecutive days a week for the first three consecutive weeks at the dosage of 6.7 mg/kg per body weight by intraperitoneal injection. Injection time points are shown as inverted triangles in FIG. 1. Injections were at a much lower dosage than those used in other experiments where the dosage was 100 mg/kg/day. The higher dosage can cause toxicity in rat liver (21, 22).)
Two to seven rats at each time point were treated with either DMN or with an equal volume of normal saline without DMN as the control (26 DMN-treated rats and 24 control rats). Rats were weighed and sacrificed on days 11, 18, 25, 32, 39, and 46 (sacrifice time points are shown as triangles in FIG. 1A) respectively. These triangular time points were designated as weeks 1 through 6 (FIG. 1A).
Liver tissues were immediately removed after sacrifice and subject to histopathological examination. The fixed liver samples were then processed for paraffin embedding. Five micrometer (5 μm) sections were prepared for hematoxylin and eosin staining (to score necroinflammatory and fatty changes) and for Sirius red/fast green collagen staining (to score for fibrosis) (23). The fatty changes were classified as presence (+) or absence (−).
In FIG. 2A, the representative phenotypes of the DMN-induced rat liver fibrosis were characterized by scoring the four histopathological features (necrosis, inflammation, fibrosis, and fatty change) as follows: the necrosis scores were from N0 to N3 (the first panel), and the inflammation scores were from I0 to I3. The scoring system for examining the intensity of liver fibrosis was modified from the scoring system of the Hepatitis Activity Index (HAI) (29, 30). Fibrosis was divided into four scores: normal (F0), fibrous expansion of portal tracts (F1), bridging fibrosis (F2) and frequent bridging fibrosis with focal nodule formation (F3). The fatty change was scored as present (+) or absent (−), respectively (the last panel). The images of the fatty change are shown at 200× magnification, whereas the others are shown at 100× magnification (FIG. 2A).
The results were ranked by time course. The necroinflammatory scores were the sum of the necrosis and inflammation scores and range from A0 to A6. The necroinflammatory change was divided into three grades: A0=none, A(1-3)=mild and A(4-6)=moderate necroinflammation. The fibrosis change was divided into two grades: F(0-1)=normal to fibrous expansion of portal tracts, F(2-3)=bridge fibrosis to frequent bridging fibrosis with nodule formation. The fatty change was shown as presence (+) or absence (−). The number of rats was counted and used to calculate the percentage of each histopathological level at each time point.

Each structure is given as a SMILES string.

Regarding `CN(C)N=O` [DMN, Dimethylnitrosamine], the Fibrinogen protein expression result in data set [1] is listed as “up-regulated”. The “abnormality in the kidney or spleen” value in the data set on rat liver (DMN-treated rats, data not shown) is recorded as “no clear abnormality”. Moreover, in the data set on rat liver (first two weeks, 6.7 mg/kg i.p.), the “DMN-treated rats with none (F0) or low levels of fibrosis (F1)” value is reported as “seventy-five”. The “DMN-treated rats with F2 and F3 fibrosis” value in the data set on rat liver (last two weeks) turned out to be 78%. Also, in the data set on rat liver (six-week time course), the “treated rats with fatty changes present” value is recorded as 3.7%. Moreover, in the data set with rat liver (third to fourth week), the “DMN-treated rats with high levels of fibrosis (F2 to F3)” value is on record as around 90%.
